Results reported in article PMC12495443, “Developing inhibitors of the guanosine triphosphate hydrolysis accelerating activity of Regulator of G protein Signaling-14 [drawing 1]” (The Journal of Biological Chemistry, 2025).
pIC50: −log10 of the molar value. Entries after “also recorded” stand apart in the source; their conditions may differ.

Legend:
THP-1 cell line = test: Cytotoxicity assays (CytoTox-Glo, CytoTox 96); assay type: cell-based; details: THP-1 cells, overnight, CytoTox-Glo and CytoTox 96
Description: To evaluate cellular toxicity of active compounds, we employed the immortalized human monocytic THP1-Dual cell line (InvivoGen) in two orthogonal cytotoxicity assays: ATP-dependent luminescence (CytoTox-Glo) and colorimetric lactate dehydrogenase (LDH) release (CytoTox 96). For each assay, compounds were serially diluted 2-fold starting at 250 μM and added to 96-well flat-bottom tissue culture plates (Thermo Scientific Nunc, Cat# 165306). THP1-Dual cells were then seeded at 20,000 to 30,000 cells per well in 100 μl RPMI 1640 media supplemented with 10% fetal bovine serum (Gibco). Plates were gently mixed and incubated overnight at 37 °C in a humidified 5% CO2 incubator. For the CytoTox-Glo assay (Promega, Cat# G9291), 50 μl of assay reagent was added to each well. Plates were mixed briefly, sealed, and incubated at room temperature for 15 min before reading luminescence on a TECAN Infinite M1000 Pro plate reader to quantify dead-cell signal. Subsequently, 50 μl of a digitonin-containing lysis solution was added to each well, followed by a second luminescence read after 15 min to assess total cell content. Percent cytotoxicity was calculated per manufacturer instructions. For the CytoTox 96 Non-Radioactive Cytotoxicity Assay (Promega, Cat# G1780), after overnight compound treatment, LDH release into the culture medium was measured by adding the provided substrate mix. Absorbance was read at 490 or 492 nm within 1 h of adding the stop solution. Assay optimization and data normalization were conducted according to the manufacturer’s technical manual.

[1] = molecular target: T1, cysteine-less RGS14 RGS-box protein (Homo sapiens, UniProt O43566, C100S/C183S); test: Transcreener GDP RGScreen assay with cysteine-less RGS14 RGS-box; assay type: biochemical; details: range given jointly for cysteine-less RGS14 and RGS12 proteins; read-out: estimated IC50, cysteine-less RGS14 RGS-box
T1 construct: human RGS14 RGS-box (aa 46–195 of UniProt O43566); host or cells: E. coli
T1 sequence (O43566 46-195 C100S/C183S): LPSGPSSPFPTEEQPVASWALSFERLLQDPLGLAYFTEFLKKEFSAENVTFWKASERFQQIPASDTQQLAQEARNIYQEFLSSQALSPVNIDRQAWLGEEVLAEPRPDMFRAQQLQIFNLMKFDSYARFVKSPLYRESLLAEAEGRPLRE
Description: (§1) Given the earlier experience with screening hit CCG-4986 being a covalent modifier of RGS4 cysteine residues ([35]), we sought to exclude protein-thiol reactivity as a potential mechanism of action of the active compounds derived from the AtomNet virtual screening effort ([55]) and SAR campaign follow-ups. To address this possibility and screen out thiol-reactive hits, cysteine-lacking versions of recombinant proteins spanning the RGS-boxes of RGS14 and RGS12 were purified from E. coli cultures.
(§2) Reagents and protocols for the fluorescence anisotropy-based Transcreener GDP RGScreen assay using a rate-altered, double point-mutant, recombinant Gαi1 protein have been extensively described previously ([43], [44]); reactions were always performed so that total GTP converted over the time course was consistently less than 10% of reaction maximum input. Specific methods for its application in assessing RGS14 and RGS12 GAP activity are summarized as follows. Open-reading frames (ORFs) encoding wild-type versions of the human RGS14 RGS-box (aa 46–195 of UniProt O43566) and human RGS12 RGS-box (aa 695–843 of UniProt O14924) were each sub-cloned in-frame with an N-terminal hexahistidine (His6) expression tag in the plasmid pET30a, expressed in E. coli cultures, and then purified by nickel-nitriloacetate (Ni-NTA) and size-exclusion (Superdex 200) column chromatographies by GenScript using previously described methods ([35]). […]
Supplementary Figure S5. […] (A,B) Recombinant, cysteine residue-lacking (“-cys”) RGS14 RGS-box protein (panel A) and cysteine residue-lacking RGS12 RGS-box protein ([…]) were both observed, in a concentration-dependent fashion (indicated in ng/µL by color), to increase steady-state GDP production by 0.5 ng/µL Gai1(DM) protein in a 20 µL final reaction volume, as measured by the Transcreener® GDP-detection RGScreen™ assay and detected by the change in polarization (ΔmP) at each indicated time point (“enz” = Gai1(DM) protein a.k.a. […]

[2] = molecular target: T2, cysteine-less RGS12 RGS-box protein (Homo sapiens, UniProt O14924, C701S/C748S/C775S/C831S); test: Transcreener GDP RGScreen assay with cysteine-less RGS12 RGS-box; assay type: biochemical; details: range given jointly for cysteine-less RGS14 and RGS12 proteins; read-out: estimated IC50, cysteine-less RGS12 RGS-box
T2 construct: human RGS12 RGS-box (aa 695–843 of UniProt O14924); host or cells: E. coli
T2 sequence (O14924 695-843 C701S/C748S/C775S/C831S): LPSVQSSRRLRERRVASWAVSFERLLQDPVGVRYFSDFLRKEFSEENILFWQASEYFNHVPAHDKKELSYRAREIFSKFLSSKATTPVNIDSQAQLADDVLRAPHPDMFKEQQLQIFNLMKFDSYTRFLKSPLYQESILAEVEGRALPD
Description: as §1
as §2, with “Specific methods for its application in assessing RGS14 and RGS12 GAP activity are summarized as follows.” left out

pIC50 [1]: 4.72 to 5.00
pIC50 [2]: 4.72 to 5.00
Compound: COc1ccc(OCc2nnc3n2N=C(c2ccc(OC)c(OC)c2)CS3)cc1 [Z55660043, 6-(3,4-dimethoxyphenyl)-3-[(4-methoxy-phenoxy)methyl]-5H-[1,2,4]triazolo[3,4-b][1,3,4]thiadiazine]
cytotoxicity (THP-1 cell line): without measurable cytotoxicity; also recorded: no overt cytotoxicity
